# Laboratory results: publication PMC12040169 (PLOS Biology, 2025)
# Experiment: in vitro
# Conditions: human, hela cells, % viability
row,Structure (SMILES),"viability at 28.5 h, 10 µM"
1,O=C(O)CCCC(=O)N(c1ccccc1)c1ccccc1 [CBK286901],80.2%
2,CCOC(=O)C(NCc1nc(-c2cccc(C(F)(F)F)c2)no1)C(C)C (centres unmarked) [CBK305445],93%
3,Cc1c(CN(C)CC(=O)Nc2cccc(C(F)(F)F)c2)cnn1C [CBK304341],85%
4,CC(=O)N1c2ccccc2C(C)(c2ccc(Br)cc2)CC1(C)C (centres unmarked) [CBK026461],95.8%
5,CCN(CC)C(=O)Cc1cc(C(=O)O)c2ccccc2n1 [CBK286942],104%
6,O=C(/C=C/c1ccccc1)NC(=S)Nc1ccc2oc(-c3ccncc3)nc2c1 [CBK263687],93.8%
7,Cc1nc2c(c(=O)[nH]1)CN(Cc1cccc(Oc3ccccc3)c1)CC2 [CBK283951],104%
8,Nc1nn2c(-c3cccc(Cl)c3)nnc2s1 [CBK288122],73.2%
9,O=C(c1ccc2nccnc2c1)N1CCCc2ccccc21 [CBK200257],95.3%
10,CN(c1ncc(Br)cc1C(=O)NC1CCCCC1)S(C)(=O)=O [CBK076531],111%
11,CSc1ncc(C(=O)N2CCC(N3CCCC(O)C3)CC2)cn1 (centres unmarked) [CBK307055],106%
12,Cc1csc2c(C3CCCN(C(=O)c4ccncc4)C3)nc(C)n12 (centres unmarked) [CBK285213],100%
13,O=C(Nc1sc2c(c1C(=O)NCc1ccco1)CCCC2)c1sc2ccccc2c1Cl [CBK265086],92.1%
14,Cc1ccn(-c2ccc(N3CCOC4(CCCC4)C3)nn2)n1 [CBK305262],87.9%
15,c1ccc([C@@H]2CN(Cc3ccccn3)C[C@H]2c2cc[nH]n2)cc1 [CBK285162],105%
16,COc1ccc(OCCNC(=O)c2cc(Br)cnc2N2CCOCC2)cc1 [CBK076214],88%
17,c1ccc2cc(CCN3CCC(Oc4nccnc4OCCN4CCOCC4)CC3)ccc2c1 [CBK082942T],90.7%
18,Cc1cccc(Cl)c1OCC(O)CNCCc1ccccc1 (centres unmarked) [CBK003076],102%
19,Cc1ccc(NC(=O)c2cnc3scc(C)n3c2=O)cc1C [CBK287461],108%
20,CCN(CC)C(=O)c1sccc1NS(=O)(=O)c1cc(Br)c(Cl)s1 [CBK004599],98.3%
21,CCCCc1c(C(=O)O)cc(OC)cc1C(=O)O [CBK217866],93.5%
22,O=C(Nc1nc2ccccc2[nH]1)c1cccc(N2CCCS2(=O)=O)c1 [CBK304584],100%

row,Structure (SMILES),"viability at 28.5 h, 10 µM"
1,Cc1ccccc1OCc1nnc(SCc2c(Cl)cccc2[N+](=O)[O-])n1C [CBK265846],92.4%
2,O=C(/C=C/c1ccc2c(c1)OCO2)N1CCCC2(CCN(C(=O)c3ccoc3)C2)C1 (centres unmarked) [CBK131622],92.3%
3,CCOc1ccc(NC(=O)C(=O)NC2CCCCC2)cc1 [CBK261822],105%
4,Cc1ccc2nc(O)c(CNc3ccc(-c4nc5cc(C)ccc5[nH]4)cc3)cc2c1 [CBK286161],89.7%
5,O=C(CN1C(=O)S/C(=C\c2ccc(OCc3ccccc3)cc2)C1=O)c1ccccc1 [CBK264636],95.1%
6,Cc1ccccc1-n1sc(=O)n(Cc2ccc(F)cc2)c1=O [CBK113605],101%
7,CC(C)CNC(=O)N1CCNC(=O)C1 [CBK155864],86.4%
8,COc1ccc(S(=O)(=O)NCCCN2CCOCC2)c(C)c1C [CBK266519],110%
9,O=C(NC1CCCC1)c1ncoc1-c1ccccc1 [CBK281937],100%
10,CC(C)(C)NC(=O)C1C2CCC3(CC(=O)c4ccccc4O3)C21 (centres unmarked) [CBK284821],81.8%
11,COC(=O)CN1C(c2ccccc2O)Nc2ccc(Br)cc2C1c1ccccc1 (centres unmarked) [CBK263133],91.1%
12,O=C(COc1ccccc1)Nc1ccc2oc(-c3cccnc3)nc2c1 [CBK262959],92.1%
13,O=C(Nc1ccsc1C(=O)O)c1ccccc1Cl [CBK152440],98.4%
14,CC[C@H]1CN(C(=O)N2CCOCC2)CC[C@H]1CC(=O)NCCOC [CBK289134],100%
15,COc1cc(C(c2c[nH]c3ccccc23)c2c[nH]c3ccccc23)c(Br)cc1OC(C)=O [CBK266051],107%
16,Nc1nc(=O)c2cnc3ccc(C(=O)O)cc3c2s1 [CBK291239],96.7%
17,Cc1cc(NS(=O)(=O)c2ccc(NC(=O)Nc3ccc4c(c3)OCO4)cc2)no1 [CBK268139],104%
18,O=C(CSc1nnc(-c2cccnc2)n1Cc1ccccc1)Nc1ccc(Br)cc1 [CBK267527],94.5%
19,CCOc1ccc(Oc2nc(N(C)C)nc(N3CCOCC3)n2)nn1 [CBK269585],104%
20,Nc1nccc(-c2cc(OCC(F)(F)F)ccc2OCC(F)(F)F)n1 [CBK005948],94.6%
21,O=C(NCc1ccncc1)C1CCCN(c2nc3c(-c4ccccc4)csc3c(=O)[nH]2)C1 (centres unmarked) [CBK215493],107%
22,c1coc(CCC2NCCn3cccc32)c1 (centres unmarked) [CBK023964F],95.2%

row,Structure (SMILES),"viability at 28.5 h, 10 µM"
1,COCCNC(=O)c1cc(-c2ccccc2)cnc1N(C)S(C)(=O)=O [CBK076484],85.8%
2,O=C(O)c1ccc(Cl)c(S(=O)(=O)Nc2ccc(I)cc2)c1 [CBK296132],83.2%
3,Cc1cc(NC(=O)c2cc(Br)cnc2NCc2cccnc2)n(C)n1 [CBK076358],90.7%
4,CCOC(=O)C1CCN(C(=O)Cn2cnc3ccc(Br)cc3c2=O)CC1 [CBK306070],106%
5,COc1cc2c(cc1OC)C1(CCOCC1)CNC2CC(c1ccccc1)c1ccccc1 (centres unmarked) [CBK014382],91.4%
6,CC(=O)Oc1cc(C(F)(F)F)nc(NCc2ccc(Cl)cc2)n1 [CBK000500],94.7%
7,COc1ccccc1C1(NC(=O)c2cnsc2)CCCC1 [CBK283643],84.5%
8,Oc1cccc(OCCOc2nccc(C(F)(F)F)n2)c1 [CBK115903],92.7%
9,CC(=O)Nc1ccc(C(=O)Nc2ccc(-c3nc4ccccc4[nH]3)cc2)cc1 [CBK262857],84.9%
10,CC1CCC(C(N)=O)CN1C(=O)c1ccc(Oc2cccc(Br)c2)nc1 (centres unmarked) [CBK306005],106%
11,C=CCn1c2ccccc2c2nnc(SCC(=O)N3c4ccccc4Sc4ccccc43)nc21 [CBK263237],106%
12,CN1CCC[C@H]1C(=O)Nc1cc(-c2ccncc2)c[nH]c1=O [CBK116587],107%
13,CCN(CC(=O)NCc1cccnc1)S(=O)(=O)c1ccc2ccccc2c1 [CBK300514],108%
14,CSCCC(=O)NCc1c(-c2ccccc2)noc1C [CBK144092],85.9%
15,Cc1ccc(S(=O)(=O)Nc2c(C(=O)O)[nH]c3ccccc23)cc1 [CBK049880],72.6%
16,COc1cc(OC)cc(-c2[nH][nH]c(=O)c2CCN)c1 [CBK288414],110%
17,CNC(=O)NC(=O)C1CCN(CCc2ccccc2)CC1 [CBK034956],106%
18,CN(c1ncccc1C#N)C1CCN(CCC(N)=O)CC1 [CBK016793],87.2%
19,c1ccc(CCNC2CCCc3c2[nH]c2ccc(C4CCCCC4)cc32)cc1 (centres unmarked) [CBK261602C],90.7%
20,Cc1ccc(Nc2cc(-c3cccc(N)c3)ncn2)cc1NS(C)(=O)=O [CBK091145],99.1%
21,Cc1cccc(C2NS(=O)(=O)NC2=N)c1 (centres unmarked) [CBK263868],98.3%
22,CC1CCN(S(=O)(=O)c2cccc(S(=O)(=O)c3cccc(S(=O)(=O)N4CCC(C)CC4)c3)c2)CC1 [CBK261731],90%

row,Structure (SMILES),"viability at 28.5 h, 10 µM"
1,CCC1CCCN(C(=O)Cc2c(C)nc(-c3cccnc3)[nH]c2=O)C1 (centres unmarked) [CBK305801],91.7%
2,COc1ccc(C)cc1S(=O)(=O)N(C)CC(=O)O [CBK267863],106%
3,CC1CCN(S(=O)(=O)c2ccc(Oc3ccc([N+](=O)[O-])cc3)cc2)CC1 [CBK261774],98%
4,CC(NCC(O)COCc1ccc(Cl)cc1)c1ccccc1 (centres unmarked) [CBK027972C],87.5%
5,CC(NC(=O)N1CCNC(=O)C1)c1ccccc1 (centres unmarked) [CBK155877],96%
6,COc1ccc(Cl)cc1NC(=O)CCCn1cnc([N+](=O)[O-])n1 [CBK268882],83.2%
7,CCOC(=O)Cc1csc(NS(=O)(=O)c2cn(C)cn2)n1 [CBK000888],112%
8,O=C(CS(=O)(=O)Cc1ccccc1)Nc1ccc(S(=O)(=O)N2CCCCCC2)cc1 [CBK266653],98.8%
9,OC(CN1CCC(O)(c2ccccc2F)CC1)c1ccc(Cl)cc1 (centres unmarked) [CBK283312],87%
10,O=C(c1cccs1)N1CCC(n2cnc3cccnc32)CC1 [CBK283938],88.4%
11,Cc1nc2ccc(C(=O)NCCCN3Cc4ccccc4C3)cc2[nH]1 [CBK283301],90.3%
12,O=C(CN1CCN(S(=O)(=O)N2CCCCCC2)CC1)Nc1cc(Cl)ccc1Cl [CBK269587],90.1%
13,N=c1sc(Cc2cc(Cl)ccc2Cl)cn1CC(=O)c1ccccc1 [CBK263584B],89.6%
14,Cc1nc(S(=O)(=O)N2CCC(OCC3CC3)C2)cn1C (centres unmarked) [CBK304668],102%
15,O=C(O)c1ccc(CN2C[C@H](O)C[C@H]2c2nc(-c3ccc(F)cc3)no2)cc1 [CBK288870],112%
16,O=C(C1=C(O)C(=O)N(c2ccc([N+](=O)[O-])cc2)C1c1ccccc1)c1ccccc1 (centres unmarked) [CBK263787],94.4%
17,Cc1oc2cc(OCC(=O)NCC(=O)O)ccc2c(=O)c1-c1ccc(Cl)cc1 [CBK286697],99.6%
18,Cc1cc(C)n(-c2ccc(C(=O)NCC3(C)COC3)cc2)n1 [CBK281756],92.1%
19,CCN(CC)CCN1CCN(c2cncc(-c3cccc(/C=C/C(=O)O)c3)n2)CC1 [CBK066097],96.6%
20,COc1ccc(Oc2nccnc2N2CCN(CCOc3ccccc3)CC2)cc1OC [CBK083061T],86.3%
21,Cc1cccc(N2C(=O)c3ccc(C(=O)OC(C(=O)c4ccccc4)c4ccccc4)cc3C2=O)c1 (centres unmarked) [CBK265098],88.8%
22,CN1CCN(S(=O)(=O)c2ccc3c4c(cccc24)C(=O)N3)CC1 [CBK266647],111%

# Same assay, conditions: human, hela cells, % viability, bulk resorufin, single well
row,Structure (SMILES),"viability at 28.5 h, 10 µM"
1,Cc1ccc(N2C(=O)/C(=C/c3ccc(OCC(=O)O)c(Cl)c3)C(=O)NC2=S)c(C)c1 [CBK264043],109%
